Structures are written as SMILES.

The target in the assay is T1, ubiquitin-specific protease 28 (USP28) (Homo sapiens, UniProt Q96RU2).
T1 construct: endogenous, NCI-H520 cell extracts and intact cells
T1 sequence (Q96RU2 1-1077): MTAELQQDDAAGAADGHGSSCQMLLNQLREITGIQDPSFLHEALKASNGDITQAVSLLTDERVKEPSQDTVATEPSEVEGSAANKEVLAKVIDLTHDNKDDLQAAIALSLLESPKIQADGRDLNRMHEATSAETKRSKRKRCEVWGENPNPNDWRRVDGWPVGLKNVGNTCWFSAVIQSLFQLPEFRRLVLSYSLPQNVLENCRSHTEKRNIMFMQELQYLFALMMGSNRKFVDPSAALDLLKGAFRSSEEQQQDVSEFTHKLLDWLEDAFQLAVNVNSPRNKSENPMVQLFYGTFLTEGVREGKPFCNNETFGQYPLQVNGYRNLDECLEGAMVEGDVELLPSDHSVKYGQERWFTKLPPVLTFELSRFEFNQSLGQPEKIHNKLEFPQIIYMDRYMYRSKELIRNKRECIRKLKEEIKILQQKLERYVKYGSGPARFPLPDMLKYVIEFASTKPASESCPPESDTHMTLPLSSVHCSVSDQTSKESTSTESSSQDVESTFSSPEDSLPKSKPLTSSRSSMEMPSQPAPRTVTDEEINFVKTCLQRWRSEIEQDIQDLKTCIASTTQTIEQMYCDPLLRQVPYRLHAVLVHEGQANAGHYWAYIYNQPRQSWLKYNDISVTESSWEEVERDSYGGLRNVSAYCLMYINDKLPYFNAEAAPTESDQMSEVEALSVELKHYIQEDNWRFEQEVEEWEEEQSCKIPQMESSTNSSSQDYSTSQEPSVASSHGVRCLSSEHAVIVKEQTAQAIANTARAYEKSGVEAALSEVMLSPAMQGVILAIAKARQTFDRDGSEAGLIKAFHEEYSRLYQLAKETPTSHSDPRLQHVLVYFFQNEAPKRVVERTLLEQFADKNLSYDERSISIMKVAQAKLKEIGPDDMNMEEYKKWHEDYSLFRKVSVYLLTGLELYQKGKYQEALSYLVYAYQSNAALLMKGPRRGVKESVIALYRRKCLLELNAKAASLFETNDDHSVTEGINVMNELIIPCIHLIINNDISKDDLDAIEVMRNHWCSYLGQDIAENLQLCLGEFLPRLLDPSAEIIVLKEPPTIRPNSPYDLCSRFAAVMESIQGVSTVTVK
The assay is described as follows: competition with HA-UbPA activity-based probe labelling (Western blot) in NCI-H520 extract and cells; ABPP mass spectrometry. It is filed as biochemical. For orientation: In western blotting, separated proteins are transferred to a membrane and probed.

With `Cc1ccc2c(N)c(C(=O)N[C@H]3CCc4cc(N5CC6CCC(C5)N6)ccc4C3)sc2n1` [FT206], the EC50 (commonly the midpoint of the concentration-response curve) lay in the range of 300 to 1000 nM.

Source of the values: PMC8553340, “USP28 deletion and small-molecule inhibition destabilizes c-MYC and elicits regression of squamous cell lung carcinoma” (eLife, 2021).
